{"source": "patent US20180250306A1", "about": "“ALDEHYDE CONJUGATES AND USES THEREOF” (ALDEYRA THERAPEUTICS, INC., priority 2015, published 2018)", "key": {"[1]": {"system": "IL-1β", "test": "Western Blot of IL-1β levels in cardiac fibroblasts", "format": "cell-based, neonatal rats", "settings": "p<0.01", "protocol": "(§1) Thirty hearts from neonatal rats were minced and digested (Neonatal Cardiomyocyte Isolation System, LK003303, Worthington). After tissue digestion and cell dissociation, cell suspensions were plated into 35 mm dishes or onto coverslips in wells of 24-well plates. Serum-free DMEM was added to the cell suspensions and the cells allowed to adhere for 2 hrs. After two hours, the cell suspension was removed and the adherent cells were fed with DMEM containing 10% fetal bovine serum (FBS). Cells were maintained in DMEM+10% FBS for 24 hours before treatments. Treatment duration was 24 hours.\n(§2) Cell samples were divided in to 2 groups, stimulated with H2O2 or not stimulated with H2O2. […] The cells that were treated with H2O2 contained a final concentration of 0.001% in the wells. Drug was dissolved in 9.5% Captisol®, to a stock concentration of 5 mg/ml. […] Cells were treated for 24 hours then either fixed for immunostaining or collected as lysates for Western Blot analysis.\nWhole cell lysates were used for Western blotting; nuclear and cytosolic fractions were not prepared. DMEM from cells plated in 35 mm plates was removed, the cells rinsed quickly in PBS, then incubated in 500 ul cold RIPA buffer for 20-30 minutes at 4° C. under gentle rocking. Following RIPA incubation, cells were scraped from the dish using cell scrapers and frozen at −80° C. overnight to increase cell lysing. […]"}, "[2]": {"system": "NFκB", "test": "NFκB translocation to the nucleus of cardiac fibroblasts (immunostaining)", "format": "cell-based, neonatal rats", "settings": "unstimulated cells; for cells with NFκB localization in nuclei: 24 hours (untreated 76.6%)", "protocol": "as §1, §2\nAfter 24 hours of treatment, cells on cover slips were rinsed twice with PBS, fixed in 1% paraformaldehyde for 10 minutes then rinsed in PBS for immunostaining. Cells were permeabilized for 18 minutes in 0.1% Triton-X 100 in PBS, then rinsed three times in PBS for 15 minutes each. Following the rinses, cover slips were incubated in Image-IT FX Signal Enhancer (Invitrogen) to reduce background intensities in images. Subsequently, cells were washed three times 15 min with PBS, followed by one hour of blocking in 10% Normal Goat Serum Cells and 0.05% Triton-X 100, and then incubated overnight in 4° C. with primary antibodies diluted in PBS with 2% Normal Goat Serum and 0.05% Triton-X 100. Antibodies were applied at the following concentrations: Alpha-Smooth Muscle Actin 1:200 (V5228, Sigma-Aldrich), Vimentin 1:200 (V6630, Sigma-Aldrich) and NFκB 1:200 (C-20, Santa Cruz Biotech). Following overnight incubation, cover slips were brought to room temperature over 10 minutes and then rinsed in PBS for 15 min. […]"}, "[3]": {"system": "circulating cytokines", "test": "LPS model of inflammation in the mouse, ELISA of circulating cytokines", "format": "in vivo, mice", "protocol": "Male C57BI/6 mice are dosed with disclosed compounds 30 minutes before they are exposed to LPS (20 mg/kg). Two hours after the LPS exposure, blood is collected from the mice and an ELISA is conducted to determine the amount of circulating cytokines. Treatment with disclosed compounds leads to reduction in proinflammatory cytokines, such as IL-5 and IL-1β, IL-17, and TNF. Also, treatment with disclosed compounds results in elevated anti-inflammatory cytokines, such as IL-10."}}, "data": [{"smiles": "CC(C)(O)c1nc2ccc(Cl)cc2cc1N", "note": "[NS2, 2-(3-amino-6-chloroquinolin-2-yl)propan-2-ol]", "values": [{"measurement": "IL-1β levels (Western Blot)", "setting": "[1]; H2O2-stimulated cells", "result": "significant decreases"}, {"measurement": "IL-1β levels (Western Blot)", "setting": "[1]; unstimulated cells", "result": "significant decreases"}, {"measurement": "cells with NFκB localization in nuclei", "setting": "[2]; 10 μM", "result": 30.7, "unit": "%"}, {"measurement": "cells with NFκB localization in nuclei", "setting": "[2]; 100 μM", "result": 35.7, "unit": "%"}, {"measurement": "cells with nuclear NFκB", "setting": "[2]; 1 mM, very few cells, not conclusive", "result": "no cells"}, {"measurement": "pro-inflammatory cytokines", "setting": "[3]; such as IL-5, IL-1β, IL-17, TNF", "result": "downregulate"}, {"measurement": "anti-inflammatory cytokines", "setting": "[3]; such as IL-10", "result": "upregulate"}]}]}
